In patent US9604940B2 (Chroma Therapeutics Ltd., priority 2012, dated 2017):

How the values were obtained:
[1] = biological target: T1, CSF1R (FMS) (Homo sapiens, UniProt P07333); assay: CSF1R (FMS) kinase activity, Z'-LYTE biochemical assay (Invitrogen); conditions: ATP at or close to Km, 60 minute reaction at room temperature, read-out: Inhibitor activity versus CSF-1
T1 construct: purchased Invitrogen (Paisley, UK)
Method: CSF1R (FMS) Kinase Activity
The ability of compounds to inhibit CSF1R (FMS) kinase activity was measured in an assay performed by Invitrogen (Paisley, UK). The Z′-LYTE™ biochemical assay employs a fluorescence-based, coupled-enzyme format and is based on the differential sensitivity of phosphorylated and non-phosphorylated peptides to proteolytic cleavage. The peptide substrate is labelled with two fluorophores—one at each end—that make up a FRET pair. In the primary reaction, the kinase transfers the gamma-phosphate of ATP to a single […] residue in a synthetic FRET-peptide. In the secondary reaction, a site-specific protease recognizes and cleaves non-phosphorylated FRET-peptides. Phosphorylation of FRET-peptides suppresses cleavage by the Development Reagent. Cleavage disrupts FRET between the donor (i.e. coumarin) and acceptor (i.e. fluorescein) fluorophores on the FRET-peptide, whereas uncleaved, phosphorylated FRET-peptides maintain FRET. A […] method, which calculates the ratio (the Emission Ratio) of donor emission to acceptor emission after excitation of the donor fluorophore at 400 nm, is used to quantitate reaction progress.
The final 10 μL Kinase Reaction consists of 0.12-12.3 ng CSF1R (FMS), 2 μM Tyr 01 Peptide and ATP in 50 mM HEPES pH 7.5, 0.01% BRIJ-35, 10 mM MgCl2, 1 mM EGTA. The assay is performed at an ATP concentration at, or close to, the Km. After the 60 minute Kinase Reaction incubation at room temperature, 5 μL of a 1:256 dilution of Development Reagent is added. The assay plate is incubated for a further 60 minutes at room temperature and read on a fluorescence plate reader.
Duplicate data points are generated from a ⅓ log dilution series of a stock solution of test compound in DMSO. Nine dilutions steps are made from a top concentration of 10 mM, and a ‘no compound’ blank is included. Data is collected and analysed using XLfit software from IDBS. The dose response curve is curve fitted to model number 205 (sigmoidal dose-response model). From the curve generated, the concentration giving 50% inhibition is determined and reported.

[2] = system: MCP-1; assay: MCSF-stimulation of human whole blood, MCP-1 levels by sandwich ELISA; type: cell-based; conditions: inhibitor 2 hours before MCSF 50 ng/ml, 22 hrs, MCP-1 in cell-free supernatants, read-out: Inhibitor activity versus MCP-1
Method: Macrophage Colony-Stimulating Factor (MCSF)-Stimulation of Human Whole Blood
Whole blood was taken by venous puncture using heparinised vacutainers (Becton Dickinson) and diluted in an equal volume of RPMI1640 tissue culture media (Sigma). 100 μl was plated in V-bottomed 96 well tissue culture treated plates. 2 hours after the addition of the inhibitor in 100 μl of RPMI1640 media, the blood was stimulated with MCSF (Peprotech: #300-25-10 uG) at a final concentration of 50 ng/ml and incubated at 37° C. in 5% CO2 for 22 hrs. MCP-1 levels were measured from cell-free supernatants by sandwich ELISA developed from MCP-1/CCL2 Duoset (R&D Systems #DY279). Additional reagents required for ELISA were purchased from Sigma, (BSA: A3059, 10×PBS: D1408, Tween20: P5927) R&D Systems, (colour reagent: #DY999 and stop solution: #DY994) and Costar (96-well EIA plates: #2592). Assays were carried out following the manufacturer's instructions with the following modifications: Cell-free supernatants were diluted 30:70 in reagent diluent before assay. All incubations except capture antibody were carried out with shaking at 550 rpm. 3 washes were carried out between steps, and incubation times were blocking 1.5 hr, sample/standard and detection antibody incubations 2 hr, HRP incubation 30 min, colour development 20 min. • IC50 values were allocated to one of five ranges as follows: • Range A: IC50<100 nM • Range B: 100 nM<IC50<300 nM • Range C: 300 nM<1050<1000 nM • Range D: 1000 nM<IC50<5000 nM • Range E: IC50>5000 nM • NT=not tested

T1 sequence (P07333 20-972): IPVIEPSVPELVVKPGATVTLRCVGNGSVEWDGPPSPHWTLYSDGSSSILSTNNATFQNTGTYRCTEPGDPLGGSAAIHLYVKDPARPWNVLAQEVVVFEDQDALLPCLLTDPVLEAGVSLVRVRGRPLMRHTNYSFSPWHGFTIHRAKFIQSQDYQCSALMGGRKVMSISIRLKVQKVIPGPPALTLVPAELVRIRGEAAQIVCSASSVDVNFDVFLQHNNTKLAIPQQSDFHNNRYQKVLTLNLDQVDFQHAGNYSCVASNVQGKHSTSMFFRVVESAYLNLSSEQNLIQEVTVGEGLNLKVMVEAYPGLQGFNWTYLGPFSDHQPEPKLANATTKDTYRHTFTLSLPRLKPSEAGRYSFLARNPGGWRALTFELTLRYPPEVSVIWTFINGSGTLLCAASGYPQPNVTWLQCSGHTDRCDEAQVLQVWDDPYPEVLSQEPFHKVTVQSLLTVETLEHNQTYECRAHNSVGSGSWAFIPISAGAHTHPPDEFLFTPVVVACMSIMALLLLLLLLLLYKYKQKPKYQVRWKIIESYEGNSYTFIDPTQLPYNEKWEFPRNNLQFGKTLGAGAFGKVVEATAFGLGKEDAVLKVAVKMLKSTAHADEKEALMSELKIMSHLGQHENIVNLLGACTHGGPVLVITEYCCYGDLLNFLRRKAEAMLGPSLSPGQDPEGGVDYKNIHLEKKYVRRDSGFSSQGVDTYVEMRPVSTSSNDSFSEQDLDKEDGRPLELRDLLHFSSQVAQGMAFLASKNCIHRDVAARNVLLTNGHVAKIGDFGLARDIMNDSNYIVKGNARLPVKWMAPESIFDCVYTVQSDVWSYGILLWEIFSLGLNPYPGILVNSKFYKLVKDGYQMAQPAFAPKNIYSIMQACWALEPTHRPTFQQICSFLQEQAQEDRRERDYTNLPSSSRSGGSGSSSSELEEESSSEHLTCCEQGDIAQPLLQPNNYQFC

**Q.** Which results are given for Nc1ncc(-c2cccc(C(=O)NC3CCN[C@@H](C(=O)OC4CCCC4)C3)c2)nc1NCc1c(Cl)cccc1Cl (stereo partly drawn) [Example 32, Cyclopentyl (2R)-4-[(3-{5-amino-6-[(2,6-dichlorobenzyl)amino]pyrazin-2-yl}benzoyl)amino]piperidine-2-carboxylate]?
**A.** IC50 [1]: 100 to 300 nM; IC50 [2]: 1000 to 5000 nM

**Q.** CN(C(=O)c1ccc(-c2cnc(N)c(NCc3c(Cl)cccc3Cl)n2)cc1)C1CCN[C@@H](C(=O)OC(C)(C)C)C1 (stereo partly drawn) [Example 5, tert-Butyl (2R)-4-[(4-{5-amino-6-[(2,6-dichlorobenzyl)amino]pyrazin-2-yl}benzoyl)(methyl)amino]piperidine-2-carboxylate] was tested. Which IC50 [1] did it give?
**A.** < 100 nM

**Q.** And the IC50 [2]?
**A.** 1000 to 5000 nM

**Q.** Which results are given for Nc1ncc(-c2cccc(CNC3CCN[C@H](C(=O)OC4CCCC4)C3)c2)nc1NCc1c(Cl)cccc1Cl (stereo partly drawn) [Example 35, Cyclopentyl (2S)-4-[(3-{5-amino-6-[(2,6-dichlorobenzyl)amino]pyrazin-2-yl}benzyl)amino]piperidine-2-carboxylate di-formate]?
**A.** IC50 [1]: < 100 nM; IC50 [2]: 300 to 1000 nM

**Q.** How did the IC50 [1] turn out when Nc1ncc(-c2ccc(CNC3CCN[C@@H](C(=O)OC4CCCC4)C3)cc2)nc1NCc1c(F)cccc1F (stereo partly drawn) [Example 14, Cyclopentyl (2R)-4-[(4-{5-amino-6-[(2,6-difluorobenzyl)amino]pyrazin-2-yl}benzyl)amino]piperidine-2-carboxylate di-formate] was run?
**A.** 100 to 300 nM

**Q.** What about the IC50 [2] of the same compound?
**A.** 300 to 1000 nM

**Q.** Nc1ncc(-c2ccc(CNC3CCN[C@@H](C(=O)OC4CCCC4)C3)c(Cl)c2)nc1NCc1c(Cl)cccc1Cl (stereo partly drawn) [Example 18, Cyclopentyl (2R)-4-[(4-{5-amino-6-[(2,6-dichlorobenzyl)amino]pyrazin-2-yl}-2-chlorobenzyl)amino]piperidine-2-carboxylate] was tested. Which IC50 [1] did it give?
**A.** 100 to 300 nM

**Q.** What about the IC50 [2] of the same compound?
**A.** 100 to 300 nM

**Q.** How did the IC50 [1] turn out when Nc1ncc(-c2cnn(CCNC3CCN[C@@H](C(=O)OC4CCCC4)C3)c2)nc1NCc1c(Cl)cccc1Cl (stereo partly drawn) [Example 55, Cyclopentyl (2R)-4-{[2-(4-{5-amino-6-[(2,6-dichlorobenzyl)amino]pyrazin-2-yl}-1H-pyrazol-1-yl)ethyl]amino}piperidine-2-carboxylate di-formate] was run?
**A.** 100 to 300 nM

**Q.** And the IC50 [2]?
**A.** 100 to 300 nM

**Q.** What does the source list for Nc1ncc(-c2cccc(CCNC3(C(=O)OC4CCCC4)CCC3)c2)nc1NCc1c(Cl)cccc1Cl [Example 49, Cyclopentyl 1-{[2-(3-{5-amino-6-[(2,6-dichlorobenzyl)amino]pyrazin-2-yl}phenyl)ethyl]amino}cyclobutanecarboxylate]?
**A.** IC50 [1]: 1000 to 5000 nM; IC50 [2]: 1000 to 5000 nM

**Q.** What does the source list for CC(C)(C)OC(=O)[C@H]1CC(NCc2ccc(-c3cnc(N)c(NCc4c(Cl)cccc4Cl)n3)cc2)CCN1 (stereo partly drawn) [Example 21, tert-Butyl (2R)-4-[(4-{5-amino-6-[(2,6-dichlorobenzyl)amino]pyrazin-2-yl}benzyl)amino]piperidine-2-carboxylate]?
**A.** IC50 [1]: < 100 nM; IC50 [2]: 300 to 1000 nM

**Q.** What does the source list for CC(C)(NCc1cccc(-c2cnc(N)c(NCc3c(Cl)cccc3Cl)n2)c1)C(=O)OC1CCCC1 [Example 40, Cyclopentyl N-(3-{5-amino-6-[(2,6-dichlorobenzyl)amino]pyrazin-2-yl}benzyl)-2-methylalaninate]?
**A.** IC50 [1]: > 5000 nM; IC50 [2]: 1000 to 5000 nM

**Q.** Which IC50 [1] does the source give for Cc1cc(-c2cnc(N)c(NCc3c(Cl)cccc3Cl)n2)ccc1CNC1CCN[C@@H](C(=O)OC(C)(C)C)C1 (stereo partly drawn) [Example 26, tert-Butyl (2R)-4-[(4-{5-amino-6-[(2,6-dichlorobenzyl)amino]pyrazin-2-yl}-2-methylbenzyl)amino]piperidine-2-carboxylate] here?
**A.** < 100 nM

**Q.** What about the IC50 [2] of the same compound?
**A.** 300 to 1000 nM

**Q.** With CC(C)(C)OC(=O)[C@@H]1CC(NCc2cccc(-c3cnc(N)c(NCc4c(Cl)cccc4Cl)n3)c2)CCN1 (stereo partly drawn) [Example 47, tert-Butyl (2S)-4-[(3-{5-amino-6-[(2,6-dichlorobenzyl)amino]pyrazin-2-yl}benzyl)amino]piperidine-2-carboxylate di-formate] as the compound, how does the IC50 [1] read?
**A.** < 100 nM

**Q.** And the IC50 [2]?
**A.** 300 to 1000 nM

**Q.** How did the IC50 [1] turn out when Nc1ncc(-c2ccc(CNC3CCN[C@@H](C(=O)OC4CCCC4)C3)cc2)nc1NCc1c(Cl)cccc1Cl (stereo partly drawn) [Example 7, Cyclopentyl (2R)-4-[(4-{5-amino-6-[(2,6-dichlorobenzyl)amino]pyrazin-2-yl}benzyl)amino]piperidine-2-carboxylate] was run?
**A.** < 100 nM

**Q.** And the IC50 [2]?
**A.** 100 to 300 nM

**Q.** Which results are given for Nc1ncc(-c2cccc(CN3CCN[C@H](C(=O)OC4CCCC4)C3)c2)nc1NCc1c(Cl)cccc1Cl [Example 36, Cyclopentyl (2S)-4-(3-{5-amino-6-[(2,6-dichlorobenzyl)amino]pyrazin-2-yl}benzyl)piperazine-2-carboxylate]?
**A.** IC50 [1]: 300 to 1000 nM; IC50 [2]: 100 to 300 nM

**Q.** CN(C(=O)c1ccc(-c2cnc(N)c(NCc3c(Cl)cccc3Cl)n2)cc1)C1CCN[C@@H](C(=O)OC2CCCC2)C1 (some centres unmarked) [Example 2] was tested. Which IC50 [1] did it give?
**A.** 100 to 300 nM

**Q.** What about the IC50 [2] of the same compound?
**A.** 300 to 1000 nM

**Q.** CC(C)(C)OC(=O)C1CN(C(=O)c2ccc(-c3cnc(N)c(NCc4c(Cl)cccc4Cl)n3)cc2)CCN1 (centres unmarked) [Example 6, tert-Butyl 4-(4-{5-amino-6-[(2,6-dichlorobenzyl)amino]pyrazin-2-yl}benzoyl)piperazine-2-carboxylate] was tested. Which IC50 [1] did it give?
**A.** 100 to 300 nM

**Q.** What about the IC50 [2] of the same compound?
**A.** 300 to 1000 nM

**Q.** What does the source list for CCN(Cc1ccc(-c2cnc(N)c(NCc3c(Cl)cccc3Cl)n2)cc1)C1CCN[C@@H](C(=O)OC2CCCC2)C1 (stereo partly drawn) [Example 27, Cyclopentyl (2R)-4-[(4-{5-amino-6-[(2,6-dichlorobenzyl)amino]pyrazin-2-yl}benzyl)(ethyl)amino]piperidine-2-carboxylate]?
**A.** IC50 [1]: 100 to 300 nM; IC50 [2]: < 100 nM

**Q.** Which IC50 [1] does the source give for CN(Cc1ccc(-c2cnc(N)c(NCc3c(Cl)cccc3Cl)n2)cc1)C1CCN[C@@H](C(=O)OC2CCCC2)C1 (stereo partly drawn) [Example 28, Cyclopentyl (2R)-4-[(4-{5-amino-6-[(2,6-dichlorobenzyl)amino]pyrazin-2-yl}benzyl)(methyl)amino]piperidine-2-carboxylate] here?
**A.** 100 to 300 nM

**Q.** And the IC50 [2]?
**A.** < 100 nM

**Q.** Which IC50 [1] does the source give for CCN(Cc1ccc(-c2cnc(N)c(NCc3c(Cl)cccc3Cl)n2)cc1)C1CCN[C@@H](C(=O)OC(C)(C)C)C1 (stereo partly drawn) [Example 30, tert-Butyl (2R)-4-[(4-{5-amino-6-[(2,6-dichlorobenzyl)amino]pyrazin-2-yl}benzyl)(ethyl)amino]piperidine-2-carboxylate] here?
**A.** 100 to 300 nM

**Q.** What about the IC50 [2] of the same compound?
**A.** 100 to 300 nM

**Q.** Which results are given for Nc1ncc(-c2cccc(CNC3CCN[C@@H](C(=O)OC4CCCC4)C3)c2)nc1NCc1c(Cl)cccc1Cl (stereo partly drawn) [Example 34, Cyclopentyl (2R)-4-[(3-{5-amino-6-[(2,6-dichlorobenzyl)amino]pyrazin-2-yl}benzyl)amino]piperidine-2-carboxylate]?
**A.** IC50 [1]: < 100 nM; IC50 [2]: 100 to 300 nM

**Q.** How did the IC50 [1] turn out when Nc1ncc(-c2cccc(CNC3(C(=O)OC4CCCC4)CCC3)c2)nc1NCc1c(Cl)cccc1Cl [Example 42, Cyclopentyl 1-[(3-{5-amino-6-[(2,6-dichlorobenzyl)amino]pyrazin-2-yl}benzyl)amino]cyclobutanecarboxylate di-formate] was run?
**A.** > 5000 nM

**Q.** And the IC50 [2]?
**A.** 300 to 1000 nM

**Q.** Which results are given for CC(C)C[C@H](NCc1cccc(-c2cnc(N)c(NCc3c(Cl)cccc3Cl)n2)c1)C(=O)OC(C)(C)C [Example 39, tert-Butyl N-(3-{5-amino-6-[(2,6-dichlorobenzyl)amino]pyrazin-2-yl}benzyl)-L-leucinate]?
**A.** IC50 [1]: > 5000 nM; IC50 [2]: > 5000 nM

**Q.** Which IC50 [1] does the source give for CC(C)(C)OC(=O)[C@H]1CC(NC(=O)c2cccc(-c3cnc(N)c(NCc4c(Cl)cccc4Cl)n3)c2)CCN1 (stereo partly drawn) [Example 33, tert-Butyl (2R)-4-[(3-{5-amino-6-[(2,6-dichlorobenzyl)amino]pyrazin-2-yl}benzoyl)amino]piperidine-2-carboxylate] here?
**A.** 100 to 300 nM

**Q.** And the IC50 [2]?
**A.** 1000 to 5000 nM
